Reference: patent EP0701444B1, “METHODS AND COMPOSITIONS FOR INDUCING SLEEP” (Purdue Pharma Ltd., priority 1993, dated 1994)
Entries after “also recorded” stand apart in the source; their conditions may differ. Read-outs that look alike come from different tables or passages of the source.

How the values were obtained:
rats = assay: Rat sleep-wake bioassay (EEG, EMG, locomotor activity, body temperature); assay type: in vivo, Wistar rats; conditions: for LMA versus vehicle control: administered at CT-5, first hour after treatment
Description: Rat preparation, monitoring, and analysis of the data was conducted as described below. […] Body temperature and locomotor activity were monitored via a miniature transmitter (Minimitter) surgically placed in the abdomen. The cranial implant consisted of stainless steel screws (2 frontal [+3.9 AP form bregma, ±2.0 ML] and two occipital [-6.4 AP, ±5.5 ML]) for EEG recording. Two Teflon-coated steel wires were positioned under the nuchal trapezoid muscles for EMG recording. All leads were soldered to a miniature connector prior to surgery, and chemically sterilized in Glutarex (3M Co.). The implant assembly was affixed to the skull with dental acrylic. A minimum of three weeks was allowed for recovery.
Each rat was permanently housed in its own individual recording cage located within separate, ventilated compartments of custom-designed stainless steel cabinets. Each Nalgene microisolator cage, which is an individual recording cage, was enhanced with a filter-top riser and swivel-commutator. Food and water were available ad libitum. […] Animals were undisturbed for three days both before and after treatments. In practice, animals were undisturbed during the weekend. Treatments were administered on Monday evening or Tuesday morning, and the animals were again left undisturbed until Friday, when cages were cleaned and the data copied off the computers.
The computers monitored the EEG, EMG, body temperature and non-specific locomotor activity (LMA) via telemetry, and drinking activity from 48 rats simultaneously. The computer classified the arousal state every 10 seconds using pattern-matching algorithms which included behavior-dependent contextual rules. Drinking and LMA were recorded every 10 seconds, while body temperature was recorded every minute.
Therefore, time of treatment is important. By administering the drug at CT-18, which is the peak of the rat's activity dominated period, the natural tendency for the rats to sleep at lights on ([…] clock time or Circadian Time, CT-0) cannot mask the hypnotic activity of the drug. By administering the drug at CT-5 when the propensity for REM sleep is greatest, the drug's effect on REM sleep can be measured more accurately. The activity dominated period begins when the lights are turned off at CT-12 or 15:00 clock time on the Figures.
The drugs and controls were injected intraperitoneally or administered orally in a volume of 1 ml/kg or […], respectively, under dim red illumination for the CT-18 studies or under regular light for the CT-5 studies.
A matched control group, N=20, was selected from a pool of 60 available control candidates. These matched control groups were constructed as follows.

[1] = biological target: steroid site on the GABAA receptor-chloride channel complex; assay: [35S]TBPS binding assay; set-up: species or system Male Sprague-Dawley rats; conditions: inhibition of [35S]TBPS (2 nM) binding, rat cerebral cortex P2 membranes, 5 µM GABA, 90 minute incubation at 22°C
Description: TBPS binding assays were conducted according to the following procedures, which are described in Gee, K.W.; Lawrence, L.J.; and Yamamura, H. I., "Modulation of the Chloride Ionophore by Benzodiazepine Receptor Ligands Influence of Gamma-Aminobutyric Acid and Ligand Efficacy," Molecular Pharmacology, 30:218, 1986. Male Sprague-Dawley rats (200-250g) were anesthetized with carbon dioxide and decapitated. The rats' brains were removed and the cerebral cortices were dissected and homogenized in 10 volumes of 0.32 M sucrose. Tissue was centrifuged at 1000 x g for 10 minutes and the resultant supernatant was centrifuged at 9,000 g for 20 minutes. The resultant pellet was resuspended in 10 volumes of 200 mM NaCl/50 mM Na-K phosphate pH 7.4 buffer (binding buffer) and then centrifuged at 9,000 x g for 10 minutes. This washing procedure was repeated twice and the final P2 pellet was resuspended in the binding buffer. For the binding assay, [^35S] TBPS (2 nM) was co-incubated in binding buffer with P2 membranes and 5 µM GABA and either 1) no additions to measure total binding; 2) 2 µM unlabeled TPBS to measure nonspecific binding; 3) the neurosteroid ranging in concentration from 1 Nm to 10µM. Following a 90 minute incubation at 22°C, the suspension was filtered and the bound radioactivity was determined by liquid scintillation counting. […] A lower IC50 indicates higher affinity for the steroid site on the GABAA receptor-chloride channel complex. Table 1 gives the IC50 values of representative steroids used in the present invention.

[2] = administered at CT-18, first few hours after administration

C#C[C@@]1(O)CC[C@@]2(C)[C@@H](CC[C@@H]3[C@@H]2CC[C@]2(C)[C@@H](C(C)=O)CC[C@@H]32)C1 [3β-ethynyl-3α-hydroxy-5α-pregnan-20-one, 3β-Ethynyl-3α-hydroxy-5α-pregnan-20-one]
REM sleep (rats): slight REM-interference
NREM sleep (rats; administered at CT-5 or CT-18): potent NREM-promoting effect

C#C[C@@]1(O)CC[C@@]2(C)[C@H](CC[C@@H]3[C@@H]2CC[C@]2(C)[C@@H](C(C)=O)CC[C@@H]32)C1 [3β-ethynyl-3α-hydroxy-5β-pregnan-20-one]
IC50 [1]: 39 nM
REM sleep (rats): lack an inhibitory effect on REM sleep
body temperature (rats): minimal effect on body temperature
duration of uninterrupted NREM sleep (sleep bout length) (rats): strong increase
reduction in LMA over time (rats; 18 mg/kg at CT-18): moderately smaller reduction
rebound reduction of NREM sleep (rats; administered at CT-18): no rebound reduction of NREM sleep

Cc1ccc(-c2nc3ccc(C)cn3c2CC(=O)N(C)C)cc1 [Zolpidem, reference compound]
LMA after the hypnotic action has worn off (rats): continues to depress LMA; also recorded: reduced body temperature and locomotor activity
REM sleep (rats): strongly interfered with REM sleep
body temperature (rats): affect body temperature; also recorded: reduced body temperature
rebound insomnia / rebound wakefulness / rebound effects (rats): did not produce rebound insomnia
NREM sleep / hypnotic effect (rats; administered at CT-5): unable to effectively induce NREM sleep
REM sleep (rats; administered at CT-5): interferes with REM sleep
LMA versus vehicle control (rats): reduced LMA below vehicle control levels
REM sleep (rats; [2]): reduced REM sleep

Cc1cccc([C@H](C)c2cnc[nH]2)c1C [Dexmedetomidine, reference compound]
REM sleep (rats): strongly interfered with REM sleep
rebound insomnia / rebound wakefulness / rebound effects (rats): strong rebound effects

Cc1nnc2n1-c1ccc(Cl)cc1C(c1ccccc1Cl)=NC2 [Triazolam, reference compound]
LMA after the hypnotic action has worn off (rats): reduced body temperature and locomotor activity
body temperature (rats): affect body temperature; also recorded: reduced body temperature
NREM sleep / hypnotic effect (rats; administered at CT-5): no hypnotic effect
LMA versus vehicle control (rats): reduced LMA below vehicle control levels
REM sleep (rats; [2]): reduced REM sleep

C[C@@]1(O)CC[C@@]2(C)[C@@H](CC[C@@H]3[C@@H]2CC[C@]2(C)[C@@H](C(=O)COC(=O)CCC(=O)O)CC[C@@H]32)C1 [3α,21-dihydroxy-3β-methyl-5α-pregnan-20-one 21-Hemisuccinate]
IC50 [1]: 241 nM

C[C@]12CC[C@@H](O)C[C@@H]1CC[C@@H]1[C@@H]2CC[C@]2(C)[C@@H](C(=O)COC(=O)CCC(=O)O)CC[C@@H]12 [3α,21-dihydroxy-5α-pregnan-20-one 21-hemisuccinate]
IC50 [1]: 117 nM

CC(=O)OCC(=O)[C@H]1CC[C@H]2[C@@H]3CC[C@@H]4C[C@@](O)(C(F)(F)F)CC[C@]4(C)[C@H]3CC[C@]12C [3α,21-Dihydroxy-3β-trifluoromethyl-5β-pregnan-20-one, 21-acetate]
IC50 [1]: 370 nM

C=CC[C@@]1(O)CC[C@@]2(C)[C@H](CC[C@@H]3[C@@H]2CC[C@]2(C)[C@@H](C(C)=O)CC[C@@H]32)C1 [3α-Hydroxy-3β-(2'-propenyl)-5β-pregnan-20-one]
IC50 [1]: 75 nM

C#C[C@@]1(O)CC[C@@]2(C)[C@H](CC[C@@H]3[C@@H]2CC[C@]2(C)[C@@H](C(=O)COC(C)=O)CC[C@@H]32)C1 [3α, 21-Dihydroxy-3β-ethynyl-5β-pregnan-20-one, 21-acetate]
IC50 [1]: 251 nM

CC[C@@]1(O)CC[C@@]2(C)[C@@H](CC[C@@H]3[C@@H]2CC[C@]2(C)[C@@H](C(C)=O)CC[C@@H]32)C1 [3α-hydroxy-3β-ethyl-5α-pregnan-20-one]
IC50 [1]: 265 nM

CCC[C@H](O)[C@H]1CC[C@H]2[C@@H]3CC[C@H]4C[C@H](O)CC[C@]4(C)[C@H]3CC[C@]12C [3α,20a-Dihydroxy-21-ethyl-5α-pregnane]
IC50 [1]: 27 nM

C/C=C1/CC[C@H]2[C@@H]3CC[C@@H]4C[C@H](O)CC[C@]4(C)[C@H]3CC[C@]12C [3α-hydroxy-5β-pregnan-cis(Z)-17(20)-ene]
IC50 [1]: 180 nM

C[C@H](O)[C@H]1CC[C@H]2[C@@H]3CC[C@@H]4C[C@H](O)CC[C@]4(C)[C@H]3CC[C@]12C [3α, 20a-dihydroxy-5β-pregnane]
IC50 [1]: 292 nM

CC(=O)[C@H]1CC[C@H]2[C@@H]3CC[C@@H]4C[C@](C)(O)CC[C@@H]4[C@H]3CC[C@]12C [3α-Hydroxy-3β-methyl-5β-19-nor-pregnan-20-one]
IC50 [1]: 26 nM

CC(=O)c1ccc(C#C[C@@]2(O)CC[C@@]3(C)[C@H](CC[C@@H]4[C@@H]3CC[C@]3(C)[C@@H](C(C)=O)CC[C@@H]43)C2)cc1 [3β-(4'-Acetylphenyl)ethynyl-3α-hydroxy-5β-pregnan-20-one]
IC50 [1]: 14 nM

CCCCC#C[C@@]1(O)CC[C@@]2(C)[C@H](CC[C@@H]3[C@@H]2CC[C@]2(C)[C@@H](C(C)=O)CC[C@@H]32)C1 [3β-(1-Hexynyl)-3α-hydroxy-5β-pregnan-20-one]
IC50 [1]: 44 nM

C=CCC[C@@]1(O)CC[C@@]2(C)[C@@H](CC[C@@H]3[C@@H]2CC[C@]2(C)[C@@H](C(C)=O)CC[C@@H]32)C1 [3β-(But-3-enyl)-3α-hydroxy-5α-pregnan-20-one]
IC50 [1]: 242 nM

C[C@]12CC[C@H]3[C@@H](CC[C@@H]4C[C@@](O)(C(F)(F)F)CC[C@@H]43)[C@@H]1CC[C@@H]2C(=O)CO [3α, 21-Dihydroxy-3β-trifluoromethyl-19-nor-5β-pregnan-20-one]
IC50 [1]: 265 nM

C[C@]12CC[C@@H](O)C[C@@H]1CC[C@@H]1[C@@H]2CC[C@]2(C)[C@@H](C(=O)CSc3ccncc3)CC[C@@H]12 [3α-hydroxy-21-(pyrid-4-ylthio)-5α-pregnan-20-one]
IC50 [1]: 23 nM

CCC(=O)[C@H]1CC[C@H]2[C@@H]3CC[C@@H]4C[C@H](O)CC[C@]4(C)[C@H]3CC[C@]12C [3α-hydroxy-21-methyl-5β-pregnan-20-one]
IC50 [1]: 78 nM

CC/C=C1/CC[C@H]2[C@@H]3CC[C@@H]4C[C@H](O)CC[C@]4(C)[C@H]3CC[C@]12C [3α-hydroxy-21-methyl-5β-pregnan-17(20)(Z)-ene]
IC50 [1]: 217 nM

CCC(=O)[C@H]1CC[C@H]2[C@@H]3CC[C@H]4C[C@](C)(O)CC[C@]4(C)[C@H]3CC[C@]12C [3α-hydroxy-3β,21-dimethyl-5α-pregnan-20-one]
IC50 [1]: 89 nM

CC(=O)[C@H]1CC[C@H]2[C@@H]3CC[C@H]4C[C@@](O)(CBr)CC[C@]4(C)[C@H]3CC[C@]12C [3β-(Bromomethyl)-3α-hydroxy-5α-pregnan-20-one]
IC50 [1]: 190 nM

C/C=C1/CC[C@H]2[C@@H]3CC[C@H]4C[C@H](O)CC[C@@H]4[C@H]3CC[C@]12C [3α-hydroxy-19-nor-5α-pregnan-cis-17(20)-ene]
IC50 [1]: 373 nM

C#C[C@@]1(O)CC[C@H]2[C@H](CC[C@@H]3[C@@H]2CC[C@]2(C)[C@@H](C(C)=O)CC[C@@H]32)C1 [3β-Ethynyl-3α-hydroxy-19-nor-5β-pregnan-20-one]
IC50 [1]: 44 nM
